Test results: paper PMC12367838, “Relevance of kinetic interactions and co-formulants for plant protection product liver toxicity in vitro” (Archives of Toxicology, 2025)
Converted amounts (≈) assume the structure as drawn.

What was measured:
CYP3A4 [1] = assay: CYP450 reaction phenotyping, CYP3A4-Silensomes; format: in vitro ADME, human
Text: (§1) Silensomes™ CYP phenotyping kits (Lonza; Basel, Switzerland) contain human pooled liver microsomes (HLM) that are chemically and irreversibly inactivated by mechanism-based inhibitor for each specific CYP450 isoenzyme. Each CYP-Silensomes™ has a corresponding control that is produced the same way without inactivation. […] However, CYP2C19-Silensomes™ were not available for purchasing. The assay was essentially performed according to the instructions of the supplier. […] At 0, 10, 20, 30, and 45 min, 50 µL of the reaction volume was removed and put in a tube containing 50 µL of methanol to stop the CYP reactions. The tubes were allowed to stand at 4 °C for 1 h to allow protein precipitation to occur. Afterwards, the tubes were centrifuged at 3500 × g for 15 min at 4 °C before the supernatant was removed and analyzed using LC–MS/MS. The control experiments with the control HLM were performed at the same time as the Silensomes™. The in vitro intrinsic clearance (Clint) for each enzyme was calculated as follows: Clint (µL/min/mg) = (slope × V)/P, where the slope is the elimination rate constant (min^−1) for exponential substrate loss, V is the incubation volume (µL), and P is the microsomal protein (mg). The fraction metabolized by each CYP enzymes was determined as follows: fm = (1 – (Clint CYP-Silensomes™/Clint Control-Silensomes™)) × 100. […]

WST-1 cytotoxicity assay = format: cell-based, human; settings: human, differentiated HepaRG cells, WST-1 assay, 72 h incubation
Protocol: (§2) Wild-type human hepatoma HepaRG cells obtained from Biopredic International (Saint Grégoire, France) were cultivated for 4 weeks in a Binder cell culture incubator maintained at 37 °C in a 5% humidified atmosphere with 5% CO2 before they were employed in this study. The 4 weeks consisted of 2 weeks of proliferation and 2 weeks of differentiation. […]
(§3) Cytotoxicity assays were performed in 96-well plates at a density of 9000 cells per well, and test compounds were incubated for 72 h. […] After the 30-min incubation with WST-1, absorbance was measured at 450 nm corrected by a reference at 620 nm (λexc = 450 nm/λemi = 620 nm) using an Infinite M200 PRO plate reader (Tecan; Männedorf, Switzerland). […] The absorbed dye was quantified by fluorescence measurement (λexc = 530 nm/λemi = 645 nm) on an Infinite M200 PRO plate reader (Tecan; Männedorf, Switzerland). Background corrected viability values of both assays were expressed as a percentage of untreated cells. […] Means and standard deviations for each treatment were calculated. […]

CYP2C9 [2] = assay: CYP450 reaction phenotyping, CYP2C9-Silensomes; format: in vitro ADME; settings: human, pH 7.4
Text: as §1

HepaRG cells [3] = assay: Total RNA sequencing, differential gene expression; settings: 24 h, vs solvent control
CYP2C9 [4] = settings: clearance of DIF in healthy human adults; ref Wetmore et al. (2014); cited from earlier work
[5] = CYP450 reaction phenotyping, control-Silensomes; format: in vitro ADME, human
Text: as §1

CYP3A4 [6] = settings: clearance of DIF in healthy human adults; ref Wetmore et al. (2014); cited from earlier work
UGT1A4 = settings: clearance of DIF in healthy human adults; ref Wetmore et al. (2014); cited from earlier work
[7] = Neutral red uptake (NRU) cytotoxicity assay; format: cell-based, human; settings: human, differentiated HepaRG cells, NRU assay, 72-h incubation
Protocol: as §2, §3

HepaRG cells [8] = assay: Quantification of DIF in cell culture supernatant (LC-MS/MS); settings: 24-h treatment of HepaRG cells; µg DIF in medium/µg start concentration × 100%
Protocol: HepaRG cells were incubated for 24 h at 37 °C and 5% CO2 in a humidified atmosphere with each test compound in treatment medium of 0.5% final DMSO concentration. After incubation, medium was harvested and cells were washed twice with 0.5 mL PBS, which was added to the harvested medium. Cell lysis was performed on ice by adding 0.55 mL of RIPA Lysis and Extraction Buffer (Thermo Fisher Scientific, Waltham, Massachusetts, USA) in each well. The experiment was conducted in duplicates, which were pooled to make a final volume of 3 mL for medium samples and 1.1 ml of the cell samples for each test compound. The Pierce™ BCA Protein Assay Kit (Thermo Fisher Scientific, Waltham, Massachusetts, USA) was utilized to quantify protein in 50 µL of the cell lysates in order to normalize the measured pesticide concentrations in cells to absolute protein quantities.
Briefly, each of the 1.5 mL of medium samples and 500 µL cell samples was added to 50 mL centrifuge tubes. Up to 5 mL Milli-Q water was added followed by 10 mL acetonitrile. The mixture was shaken vigorously by a vortex mixer for 10 min. […]
Samples from the CYP450 reaction phenotyping and pesticide quantification were analyzed with an Agilent 1290 Infinity II LC system coupled to Agilent 6475 triple quadrupole LC/MS systems (Agilent Technologies; Heilbronn, Germany). […]

CYP1A2 = assay: CYP450 reaction phenotyping, CYP1A2-Silensomes; format: in vitro ADME, human
Text: Silensomes™ CYP phenotyping kits (Lonza; Basel, Switzerland) contain human pooled liver microsomes (HLM) that are chemically and irreversibly inactivated by mechanism-based inhibitor for each specific CYP450 isoenzyme. Each CYP-Silensomes™ has a corresponding control that is produced the same way without inactivation. […] However, CYP2C19-Silensomes™ were not available for purchasing. The assay was essentially performed according to the instructions of the supplier. […] At 0, 10, 20, 30, and 45 min, 50 µL of the reaction volume was removed and put in a tube containing 50 µL of methanol to stop the CYP reactions. The tubes were allowed to stand at 4 °C for 1 h to allow protein precipitation to occur. Afterwards, the tubes were centrifuged at 3500 × g for 15 min at 4 °C before the supernatant was removed and analyzed using LC–MS/MS. The control experiments with the control HLM were performed at the same time as the Silensomes™. The in vitro intrinsic clearance (Clint) for each enzyme was calculated as follows: Clint (µL/min/mg) = (slope × V)/P, where the slope is the elimination rate constant (min^−1) for exponential substrate loss, V is the incubation volume (µL), and P is the microsomal protein (mg). The fraction metabolized by each CYP enzymes was determined as follows: fm = (1 – (Clint CYP-Silensomes™/Clint Control-Silensomes™)) × 100. Three independent experiments were conducted with the same batch of Silensomes™.

[9] = high sub-cytotoxic concentration
[10] = low sub-cytotoxic concentration

Question: Which results are given for `CC1COC(Cn2cncn2)(c2ccc(Oc3ccc(Cl)cc3)cc2Cl)O1` (centres unmarked) [DIF, difenoconazole]?
Answer: CLint, CYP3A4-Silensomes (CYP3A4 [1]; 1 µM DIF, 1 mg/mL, 37 °C): 9.27 µL x min^−1 × mg^−1; DIF remaining, CYP3A4-Silensomes (CYP3A4 [1]; after 45 min): ~40%; EC50 at 72 h (WST-1 cytotoxicity assay): 11.8 µg/mL (≈ 29 µM); microsomal CLint at 1 µM (CYP2C9 [2]): 12.5 µL/min/mg; ACOX1 log2FoldChange (HepaRG cells [3]; [9]): -0.02489; AHR log2FoldChange (HepaRG cells [3]; [9]): 0.5444; CD36 log2FoldChange (HepaRG cells [3]; [9]): -0.5278; FASN log2FoldChange (HepaRG cells [3]; [9]): -0.3325; INSIG1 log2FoldChange (HepaRG cells [3]; [9]): -1.049; MLXIPL log2FoldChange (HepaRG cells [3]; [9]): 0.2472; NR1H2 log2FoldChange (HepaRG cells [3]; [9]): 0.8621; NR1H4 log2FoldChange (HepaRG cells [3]; [9]): -0.4056; NR1I2 log2FoldChange (HepaRG cells [3]; [9]): 0.3067; NR1I3 log2FoldChange (HepaRG cells [3]; [9]): -1.429; NR3C1 log2FoldChange (HepaRG cells [3]; [9]): 0.4134; PPARA log2FoldChange (HepaRG cells [3]; [9]): -0.3067; PPARG log2FoldChange (HepaRG cells [3]; [9]): 2.421; RARA log2FoldChange (HepaRG cells [3]; [9]): 0.4466; RARB log2FoldChange (HepaRG cells [3]; [9]): 1.042; RARG log2FoldChange (HepaRG cells [3]; [9]): 0.1102; SCD log2FoldChange (HepaRG cells [3]; [9]): -0.7403; SREBF1 log2FoldChange (HepaRG cells [3]; [9]): -1.013; ACOX1 log2FoldChange (HepaRG cells [3]; [10]): 0.1757; AHR log2FoldChange (HepaRG cells [3]; [10]): -0.129; CD36 log2FoldChange (HepaRG cells [3]; [10]): 0.878; FASN log2FoldChange (HepaRG cells [3]; [10]): 0.4404; INSIG1 log2FoldChange (HepaRG cells [3]; [10]): 1.024; MLXIPL log2FoldChange (HepaRG cells [3]; [10]): 0.1497; NR1H2 log2FoldChange (HepaRG cells [3]; [10]): 0.1806; NR1H4 log2FoldChange (HepaRG cells [3]; [10]): 0.1474; NR1I2 log2FoldChange (HepaRG cells [3]; [10]): 0.3965; NR1I3 log2FoldChange (HepaRG cells [3]; [10]): -0.3855; NR3C1 log2FoldChange (HepaRG cells [3]; [10]): -0.2111; PPARA log2FoldChange (HepaRG cells [3]; [10]): 0.07836; PPARG log2FoldChange (HepaRG cells [3]; [10]): 0.2447; RARA log2FoldChange (HepaRG cells [3]; [10]): 0.1188; RARB log2FoldChange (HepaRG cells [3]; [10]): 0.3597; RARG log2FoldChange (HepaRG cells [3]; [10]): 0.07285; SCD log2FoldChange (HepaRG cells [3]; [10]): 0.5665; SREBF1 log2FoldChange (HepaRG cells [3]; [10]): -0.5234; CYP2C9 fm (CYP2C9 [4]): 5.41%; DIF remaining, control-Silensomes ([5]; after a 45-min incubation): about 20%; microsomal CLint at 1 µM ([5]; human, pH 7.4): 15.7 µL/min/mg; CYP3A4 fm (CYP3A4 [6]): 43.3%; UGT1A4 fm (UGT1A4): 4.55%; EC50 at 72 h [7]: 15.9 µg/mL (≈ 39.1 µM); DIF remaining in the cell culture medium (HepaRG cells [8]): ~4%; CYP1A2 fm (fraction metabolized) (CYP1A2; Silensomes vs control-Silensomes): ≈ 0%; DIF remaining, CYP1A2-Silensomes (CYP1A2; after a 45-min incubation): about 20%; microsomal CLint at 1 µM (CYP1A2; human, pH 7.4): 15.8 µL/min/mg
